In US4008233A (priority 1972, dated 1977):
Read-outs that look alike come from different tables or passages of the source.

Key:
[1] = in vivo; conditions: mouse
[2] = set-up: species or system male rats (SIV; printed "rate"); conditions: rat, in vivo
[3] = set-up: species or system male white mice; conditions: mouse, in vivo
[4] = set-up: species or system male mice; conditions: mouse, in vivo
[5] = set-up: species or system male mice (NMRI); conditions: in vivo
[6] = set-up: species or system mice and rats; conditions: in vivo

For `CCOC(=O)[C@]1(c2ccccc2)C=C[C@@H](N2CCN(c3ccccc3)CC2)CC1` (relative stereo) [4r-(4'-Phenyl-piperazino-1')-1c-phenyl-1t-cyclohexene-(2)], the LD50 at 48 h ([1]; po) was ~1600 mg/kg, the “Decrease in Body Temperature in ° C” value ([2]; 200 mg/kg) was -1.7 °C and the “Reduction of Spontaneous Motility by % Photocage” value (“Reduction … by % Photocage” below) ([3]; 10 mg/kg) was 34%. The “Reduction … by % Photocage” value ([3]; sc, 5 mg/kg) was “no effect” and the “Analgesia ED 50 Phenyl-p-Quinone Writhing Test” value ([4]; po) was > 50.0 mg/kg.
In the case of `CCOC(=O)[C@]1(c2ccccc2)C=C[C@@H](N2CCC(c3ccccc3)CC2)CC1` (relative stereo) [4r-(4'-Phenyl-piperidino-1')-1c-phenyl-1t-ethoxycarbonyl-cyclohexene-(2)], the LD50 at 48 h ([1]; po) is reported as 850 mg/kg, the “Decrease in Body Temperature in ° C” value [2] is reported as “no effect” and the “Aggressive Mouse ED 50” value [5] is reported as “no effect”. The “Reduction … by % Photocage” value ([3]; 100 mg/kg) was 79% and the “Analgesia ED 50 Phenyl-p-Quinone Writhing Test” value ([4]; po) was “ca. 75.0 mg/kg”.
In the case of `CCOC(=O)[C@]1(c2ccccc2)C=C[C@@H](N2CCCCC2)CC1` (relative stereo) [4r-(Piperidino-1')-1c-phenyl-1t-ethoxycarbonyl-cyclohexene-(2)], the LD50 at 48 h ([1]; sc) is reported as 390 mg/kg, the “Decrease in Body Temperature in ° C” value ([2]; sc, 50 mg/kg) is reported as -0.1 °C and the “Aggressive Mouse ED 50” value ([5]; sc) is reported as “no effect”. The “Reduction … by % Photocage” value ([3]; sc, 40 mg/kg) was 11% and the “Analgesia ED 50 Phenyl-p-Quinone Writhing Test” value ([4]; sc) was > 20.0 mg/kg.
In the case of `CCOC(=O)[C@]1(c2ccccc2)C=C[C@@H](N(C)C)CC1` (relative stereo) [4r-Dimethyl-amino-1c-phenyl-1t-ethoxycarbonyl-cyclohexene-(2)], the LD50 at 48 h ([1]; po) is reported as 490 mg/kg, the LD50 at 48 h ([1]; sc) is reported as 136 mg/kg and the “Decrease in Body Temperature in ° C” value ([2]; sc) is reported as “no effect”. The “Aggressive Mouse ED 50” value ([5]; sc) was “no effect”, the “Reduction … by % Photocage” value ([3]; sc, 5 mg/kg) was 0% and the “Reduction … by % Photocage” value ([3]; sc, 20 mg/kg) was 25%. The “Analgesia ED 50 Phenyl-p-Quinone Writhing Test” value ([4]; po) was 118.0 mg/kg and the “Analgesia ED 50 Phenyl-p-Quinone Writhing Test” value ([4]; sc) was 14.6 mg/kg.
With `CCOC(=O)[C@]1(c2ccccc2)C=C[C@@H](N2CCN(c3ccccc3OC)CC2)CC1` (relative stereo) [4r-[4'-(2-Methoxy-phenyl)piperazino-1']-1c-phenyl-1t-ethoxycarbonyl-cyclohexene-(2)] the LD50 at 48 h ([1]; po) was > 1600 mg/kg, the “Reduction … by % Photocage” value ([3]; 50 mg/kg) was 17% and the “Analgesia ED 50 Phenyl-p-Quinone Writhing Test” value ([4]; po) was > 150.00 mg/kg.
In the case of `CCOC(=O)[C@]1(c2ccccc2)C=C[C@H](N(C)C)CC1` (relative stereo) [Example 1, 4r-Dimethylamino-1t-phenyl-1c-ethoxycarbonyl-cyclohexene-(2)], the LD50 at 48 h ([1]; po) is reported as 297 mg/kg, the LD50 at 48 h ([1]; sc) is reported as 155 mg/kg and the “Decrease in Body Temperature in ° C” value ([2]; sc, 20 mg/kg) is reported as -1.4 °C. For the same compound, the “Aggressive Mouse ED 50” value ([5]; sc, 30 min) was 4.0 mg/kg, the “Reduction … by % Photocage” value ([3]; sc, 5 mg/kg) was 38% and the “Reduction … by % Photocage” value ([3]; sc, 10 mg/kg) was 82%. The “Analgesic potency/activity (in words)” value [4] was “more potent analgesics than (±)-3r-dimethylamino-4c-phenyl-4t-ethoxycarbonyl-cyclohexene-(1) (Valoron ^R), a positional isomer of the former and Dolantin ^R”, the “Analgesia ED 50 Phenyl-p-Quinone Writhing Test” value ([4]; po) was 13.6 mg/kg and the “Analgesia ED 50 Phenyl-p-Quinone Writhing Test” value ([4]; sc) was 3.0 mg/kg.
With `CCOC(=O)[C@]1(c2ccccc2)C=C[C@H](N2CCCCC2)CC1` (relative stereo) [Example 2, 4r-(Piperidino-1')-1t-phenyl-1c-ethoxycarbonyl-cyclohexene-(2)] the LD50 at 48 h ([1]; sc) was 150 mg/kg, the “Decrease in Body Temperature in ° C” value ([2]; sc, 25 mg/kg) was -1.6 °C and the “Aggressive Mouse ED 50” value ([5]; sc, 30 min) was 8.0 mg/kg. For the same compound, the “Reduction … by % Photocage” value ([3]; sc, 10 mg/kg) was 93% and the “Analgesia ED 50 Phenyl-p-Quinone Writhing Test” value ([4]; sc) was 5.3 mg/kg.
For `CCOC(=O)[C@]1(c2ccccc2)C=C[C@H](N2CCC(c3ccccc3)CC2)CC1` (relative stereo) [Example 3, 4r-(4'-Phenylpiperidino-1')-1t-phenyl-1c-ethoxycarbonylcyclohexene-(2)], the LD50 at 48 h ([1]; po) was 800 mg/kg, the “Decrease in Body Temperature in ° C” value ([2]; 50 mg/kg) was -0.5 °C and the “Aggressive Mouse ED 50” value ([5]; po, 30 min) was 30 mg/kg. For the same compound, the “Reduction … by % Photocage” value ([3]; 25 mg/kg) was 91% and the “Analgesia ED 50 Phenyl-p-Quinone Writhing Test” value ([4]; po) was 10.0 mg/kg.
With `CCOC(=O)[C@]1(c2ccccc2)C=C[C@H](N2CCN(c3ccccc3OC)CC2)CC1` (relative stereo) [Example 4, 4r-[4'-(2-Methoxyphenyl)piperazino-1']-1t-phenyl-1c-ethoxycarbonyl-cyclohexene-(2)] the LD50 at 48 h ([1]; po) was ~2000 mg/kg, the “Reduction … by % Photocage” value ([3]; 50 mg/kg) was 86% and the “Analgesia ED 50 Phenyl-p-Quinone Writhing Test” value ([4]; po) was 50.0 mg/kg.
In the case of `CCOC(=O)[C@]1(c2ccccc2)C=C[C@H](N2CCN(c3ccccc3)CC2)CC1` (relative stereo) [Example 5, 4r-(4'-Phenylpiperazino-1')-1t-phenyl-1c-ethoxycarbonylcyclohexene-(2)], the LD50 at 48 h ([1]; po) is reported as 1600 mg/kg, the “Decrease in Body Temperature in ° C” value ([2]; 100 mg/kg) is reported as -2.6 °C and the “Aggressive Mouse ED 50” value ([5]; po, 30 min) is reported as 25 mg/kg. For the same compound, the “Reduction … by % Photocage” value ([3]; 10 mg/kg) was 59%, the “Reduction … by % Photocage” value ([3]; 50 mg/kg) was 94% and the “Reduction … by % Photocage” value ([3]; sc, 5 mg/kg) was 71%. For the same compound, the “Analgesia ED 50 Phenyl-p-Quinone Writhing Test” value ([4]; po) was 25.0 mg/kg.
For `CCOC(=O)C1(c2ccccc2)CCN(C)CC1` [Dolantin, Ethyl 1-methyl 4-phenyl-piperidin-4-carboxylate], the LD50 at 48 h ([1]; po) was 252 mg/kg, the LD50 at 48 h ([1]; sc) was 154 mg/kg and the “Decrease in Body Temperature in ° C” value [2] was “no effect”. The “Decrease in Body Temperature in ° C” value ([2]; sc) was “no effect”, the “Aggressive Mouse ED 50” value [5] was “no effect” and the “Aggressive Mouse ED 50” value ([5]; sc, 30 min) was > 15 mg/kg. For the same compound, the “Neuroleptic activity (in words)” value [6] was “no significant neuroleptic activity”, the “Reduction … by % Photocage” value [3] was “no effect” and the “Reduction … by % Photocage” value ([3]; sc, 15 mg/kg) was 30%. For the same compound, the “Analgesia ED 50 Phenyl-p-Quinone Writhing Test” value ([4]; po) was 28.5 mg/kg and the “Analgesia ED 50 Phenyl-p-Quinone Writhing Test” value ([4]; sc) was 6.3 mg/kg.
